Measured values published in paper PMC3134853, “In Vitro and In Vivo Study of Poly(ethylene glycol) Conjugated Ibuprofen to Extend the Duration of Action” (Scientia Pharmaceutica, 2011).
Values after ≈ are worked out from the molar mass of the structure shown. Where two headings read alike, the source gives them in different places.

What was measured:
[1] = system: carrageenan-induced paw edema in rats; experiment: Carrageenan-induced paw edema (anti-inflammatory activity); type: in vivo; conditions: Wistar rats, oral, mean ± SEM
Protocol: All the animals were obtained from the animal house of the Department of Pharmacology, […] College of Pharmacy, Mandsaur and its animal facility is approved by […]. No. 918/ac/05/CPCSEA). The experimental protocols for the same have been approved by Institutional Animal Ethics Committee. The analgesic activity was carried out on Swiss albino mice by the Siegmund et al. method; anti-inflammatory activity of the compounds was carried out on Wistar rats by the Winter et al. method. The anti-inflammatory activity was evaluated using carrageenan-induced paw edema on rat method. To evaluate the anti-inflammatory activity of the conjugates 4 groups (n = 6) of Wistar rats (150-200 g) were examined. […] A stock solution of 0.2, 0.52 and 2.14 mg ml^-1 was prepared as a homogeneous suspension in aqueous solution of sodium CMC (0.5% w/v) and each animal received 2.0- 2.2 ml of the respective drugs orally. Thirty minutes after administration of drugs, each rat received a subplanter injection of 0.1 ml of 1% carrageenan solution in its left hind paw. The swelling volume of the paw was measured before (time 0) and at 0.5, 1, 2, 3, 4, 24 h after the carrageenan injection. The measurement of the hind paw volume was carried out using an Ugo Basile Plethysmometer before any treatment (Vo) and in any interval (Vt) after the administration of the drugs. The percentage increase in the paw volume was calculated from the normal paw volume. The percentage of swelling inhibition was calculated using: Inhibition (%) = (Vt - Vo)control - (Vt - Vo)treated/(Vt - Vo)×100 (Vt and Vo relates to the average volume in the hind paw of the rats (n = 6) before any treatment and after anti-inflammatory agent treatment, respectively.

[2] = cited from earlier work
[3] = oral administration; cited from earlier work
[4] = system: acetic acid induced writhing in mice; experiment: Writhing induced by acetic acid (analgesic activity); type: in vivo, Swiss albino mice; conditions: oral, 3 h prior to acetic acid, Ibuprofen 20 mg/kg or molecular equivalent dose of conjugate
Protocol: Analgesic activity was carried out by using acetic acid induced writhing method in Swiss albino mice (25–30 g) of either sex. A 1% v/v solution of acetic acid was used to induce writhing. Test compounds were administered orally 3 h prior to acetic acid injection. Number of writhing for 10 min in control and test compounds were counted and compared. […] Acetic acid was administered intraperitoneally 1 ml/100 g body weight of the animal. Analgesic activity was measured as percent decrease in writhing in comparison to control. The percent Inhibition was calculated using the following equation: % Inhibition = 100 − number of writhings in test/number of writhings in control×100
Analgesic activity was carried out by using acetic acid induced writhing method in Swiss albino mice (25–30 g) of either sex. A 1% v/v solution of acetic acid was used to induce writhing. Test compounds were administered orally 3 h prior to acetic acid injection.

[5] = Determination of drug solubility (distilled water and phosphate buffer pH 7.4); type: physicochemical; conditions: UV 222 nm
Protocol: This suspension was stirred at room temperature for 24 hours with a Rota spin test tube Roter. After that the containers (test tubes) were left overnight for saturation. Then these saturated solutions were centrifuged at 10000 rpm the help of macro centrifuge and the supernatant was filtered via Whatman filter paper. The concentration of Ibuprofen was determined spectrophotometrically at 222 nm.

## CC(C)Cc1ccc(C(C)C(=O)O)cc1 (centres unmarked) [Ibuprofen, 2-(4-iso-butylphenyl)-propanoic acid]
[1]; 1 hr, the values are: paw edema volume
  Paw edema volume: 0.33 ± 0.013 mL
[1]; 2 hr, the values are: paw edema volume
  Paw edema volume: 0.48 ± 0.017 mL
[1]; 3 hr, the values are: paw edema volume
  Paw edema volume: 0.38 ± 0.013 mL
[1]; 4 hr, the values are: paw edema volume
  Paw edema volume: 0.24 ± 0.009 mL
[1]; 8 hr, the values are: paw edema volume
  Paw edema volume: 0.15 ± 0.01 mL
[1]; 24 hr
  Paw edema volume: 0.03 ± 0.013^ns
[2]
  Solubility in water (in words): poorly soluble in water
[3]
  Time to reach maximal plasma concentration: ≤ 2 h
[4]
  Percent inhibition (decrease) in writhing number versus control: 59.61%
[5]; distilled water, room temperature, read-out: Solubility in distilled water
  solubility at 24 h: 10.6 µg/mL (≈ 51.2 µM)
[5]; phosphate buffer pH 7.4, room temperature, read-out: Solubility in phosphate buffer (pH 7.4)
  solubility at 24 h: 25.2 µg/mL (≈ 122 µM)
